Test results taken from patent publication US12194021B2, “Modified herbal compositions for neuromodulation” (University of Southern California, priority 2021, dated 2025).

Legend:
[1] = Two-week Functional Observational Battery (FOB); type: in vivo, rats
Protocol: The results shown in Table 2 indicate that D-P is the safe compound. During the two weeks, we checked the animals' fur, response to handling, etc. […] We also made sure to observe the animals continuously for 4 hours after each treatment. We mainly focused on any negative changes in the animal's mental behavior, autonomous activity, hair, glandular secretion, feces, death, etc. We found no notable changes with these evaluations.

[2] = Six-month long-term toxicity evaluation (metabolic rate); type: in vivo; settings: male Sprague Dawley rats, gavage 1, 10 and 500 mg/kg daily, six months
Protocol: To evaluate D-P's safety, we tested dosages of 1, 10, and 500 mg/kg (500 time high concentration) of D-P in rats. Sprague Dawley rats, male, body weight starting at 175±5 g, were used in this study. Control group rats were gavaged SUC 20 ml/kg, and D-P group rats were gavaged 1, 10, and 500 mg/kg D-P every day for six months.

Water solubility = type: physicochemical; settings: compared with natural DHM
[3] = female rats, 1 mg/kg oral daily, day0
[4] = female rats, 1 mg/kg oral daily, day3
[5] = female rats, 1 mg/kg oral daily, day5
[6] = female rats, 1 mg/kg oral daily, day8
[7] = female rats, 1 mg/kg oral daily, day10
[8] = female rats, 1 mg/kg oral daily, day12
[9] = female rats, 1 mg/kg oral daily, day14
[10] = female rats, 10 mg/kg oral daily, day0
[11] = female rats, 10 mg/kg oral daily, day3
[12] = female rats, 10 mg/kg oral daily, day5
[13] = female rats, 10 mg/kg oral daily, day8
[14] = female rats, 10 mg/kg oral daily, day10
[15] = female rats, 10 mg/kg oral daily, day12
[16] = female rats, 10 mg/kg oral daily, day14
[17] = female rats, 100 mg/kg oral daily, day0
[18] = female rats, 100 mg/kg oral daily, day3
[19] = female rats, 100 mg/kg oral daily, day5
[20] = female rats, 100 mg/kg oral daily, day8
[21] = female rats, 100 mg/kg oral daily, day10
[22] = female rats, 100 mg/kg oral daily, day12
[23] = female rats, 100 mg/kg oral daily, day14
[24] = male rats, 1 mg/kg oral daily, day0
[25] = male rats, 1 mg/kg oral daily, day3
[26] = male rats, 1 mg/kg oral daily, day5
[27] = male rats, 1 mg/kg oral daily, day8
[28] = male rats, 1 mg/kg oral daily, day10
[29] = male rats, 1 mg/kg oral daily, day12
[30] = male rats, 1 mg/kg oral daily, day14
[31] = male rats, 10 mg/kg oral daily, day0
[32] = male rats, 10 mg/kg oral daily, day3
[33] = male rats, 10 mg/kg oral daily, day5
[34] = male rats, 10 mg/kg oral daily, day8
[35] = male rats, 10 mg/kg oral daily, day10
[36] = male rats, 10 mg/kg oral daily, day12
[37] = male rats, 10 mg/kg oral daily, day14
[38] = male rats, 100 mg/kg oral daily, day0
[39] = male rats, 100 mg/kg oral daily, day3
[40] = male rats, 100 mg/kg oral daily, day5
[41] = male rats, 100 mg/kg oral daily, day8
[42] = male rats, 100 mg/kg oral daily, day10
[43] = male rats, 100 mg/kg oral daily, day12
[44] = male rats, 100 mg/kg oral daily, day14
[45] = rats, oral daily 1, 10 and 100 mg/kg, two weeks

piperidin-1-ium (2R,3R)-2-(3,4-dihydroxy-5-oxidophenyl)-3,5-dihydroxy-4-oxochroman-7-olate [D-P]
Breath (B) [1, 3]: 85 ± 0.5 per minute
Pulse (P) [1, 3]: 366 ± 1.0 beats/minute
Temperature (T) [1, 3]: 36.5 ± 0.4 °C
Breath (B) [1, 4]: 85 ± 0.5 per minute
Pulse (P) [1, 4]: 366 ± 0.4 beats/minute
Temperature (T) [1, 4]: 36.5 ± 0.3 °C
Breath (B) [1, 5]: 85 ± 0.4 per minute
Pulse (P) [1, 5]: 366 ± 1.3 beats/minute
Temperature (T) [1, 5]: 36.5 ± 1.1 °C
Breath (B) [1, 6]: 85 ± 0.5 per minute
Pulse (P) [1, 6]: 366 ± 4.1 beats/minute
Temperature (T) [1, 6]: 36.5 ± 1.2 °C
Breath (B) [1, 7]: 85 ± 0.5 per minute
Pulse (P) [1, 7]: 366 ± 1.0 beats/minute
Temperature (T) [1, 7]: 36.5 ± 0.4 °C
Breath (B) [1, 8]: 85 ± 0.5 per minute
Pulse (P) [1, 8]: 366 ± 7.4 beats/minute
Temperature (T) [1, 8]: 36.5 ± 0.3 °C
Breath (B) [1, 9]: 85 ± 0.4 per minute
Pulse (P) [1, 9]: 366 ± 6.3 beats/minute
Temperature (T) [1, 9]: 36.5 ± 1.1 °C
Breath (B) [1, 10]: 86 ± 0.6 per minute
Pulse (P) [1, 10]: 367 ± 0.5 beats/minute
Temperature (T) [1, 10]: 36.3 ± 0.6 °C
Breath (B) [1, 11]: 86 ± 0.5 per minute
Pulse (P) [1, 11]: 371 ± 2.2 beats/minute
Temperature (T) [1, 11]: 36.3 ± 0.7 °C
Breath (B) [1, 12]: 86 ± 0.5 per minute
Pulse (P) [1, 12]: 369 ± 6.8 beats/minute
Temperature (T) [1, 12]: 36.3 ± 1.0 °C
Breath (B) [1, 13]: 86 ± 0.5 per minute
Pulse (P) [1, 13]: 368 ± 6.1 beats/minute
Temperature (T) [1, 13]: 36.3 ± 1.2 °C
Breath (B) [1, 14]: 86 ± 0.6 per minute
Pulse (P) [1, 14]: 366 ± 6.5 beats/minute
Temperature (T) [1, 14]: 36.3 ± 0.6 °C
Breath (B) [1, 15]: 86 ± 0.5 per minute
Pulse (P) [1, 15]: 367 ± 9.2 beats/minute
Temperature (T) [1, 15]: 36.3 ± 0.7 °C
Breath (B) [1, 16]: 86 ± 0.5 per minute
Pulse (P) [1, 16]: 372 ± 6.8 beats/minute
Temperature (T) [1, 16]: 36.3 ± 1.0 °C
Breath (B) [1, 17]: 85 ± 0.6 per minute
Pulse (P) [1, 17]: 366 ± 9.5 beats/minute
Temperature (T) [1, 17]: 36.2 ± 0.7 °C
Breath (B) [1, 18]: 85 ± 0.4 per minute
Pulse (P) [1, 18]: 364 ± 0.5 beats/minute
Temperature (T) [1, 18]: 36.2 ± 0.7 °C
Breath (B) [1, 19]: 85 ± 0.8 per minute
Pulse (P) [1, 19]: 371 ± 1.5 beats/minute
Temperature (T) [1, 19]: 36.2 ± 0.7 °C
Breath (B) [1, 20]: 85 ± 0.6 per minute
Pulse (P) [1, 20]: 367 ± 1.5 beats/minute
Temperature (T) [1, 20]: 36.2 ± 0.9 °C
Breath (B) [1, 21]: 85 ± 0.6 per minute
Pulse (P) [1, 21]: 369 ± 9.5 beats/minute
Temperature (T) [1, 21]: 36.2 ± 0.7 °C
Breath (B) [1, 22]: 85 ± 0.4 per minute
Pulse (P) [1, 22]: 373 ± 6.5 beats/minute
Temperature (T) [1, 22]: 36.2 ± 0.7 °C
Breath (B) [1, 23]: 85 ± 0.8 per minute
Pulse (P) [1, 23]: 371 ± 4.5 beats/minute
Temperature (T) [1, 23]: 36.2 ± 0.7 °C
Breath (B) [1, 24]: 84 ± 0.3 per minute
Pulse (P) [1, 24]: 367 ± 2.1 beats/minute
Temperature (T) [1, 24]: 36.1 ± 0.3 °C
Breath (B) [1, 25]: 85 ± 0.4 per minute
Pulse (P) [1, 25]: 366 ± 2.5 beats/minute
Temperature (T) [1, 25]: 36.4 ± 0.7 °C
Breath (B) [1, 26]: 85 ± 0.5 per minute
Pulse (P) [1, 26]: 366 ± 1.5 beats/minute
Temperature (T) [1, 26]: 36.5 ± 0.5 °C
Breath (B) [1, 27]: 85 ± 0.5 per minute
Pulse (P) [1, 27]: 366 ± 1.3 beats/minute
Temperature (T) [1, 27]: 36.4 ± 1.0 °C
Breath (B) [1, 28]: 85 ± 0.3 per minute
Pulse (P) [1, 28]: 366 ± 0.2 beats/minute
Temperature (T) [1, 28]: 36.5 ± 0.3 °C
Breath (B) [1, 29]: 85 ± 0.5 per minute
Pulse (P) [1, 29]: 366 ± 1.5 beats/minute
Temperature (T) [1, 29]: 36.5 ± 0.5 °C
Breath (B) [1, 30]: 85 ± 0.5 per minute
Pulse (P) [1, 30]: 366 ± 1.5 beats/minute
Temperature (T) [1, 30]: 36.5 ± 0.5 °C
Breath (B) [1, 31]: 86 ± 0.2 per minute
Pulse (P) [1, 31]: 366 ± 5.2 beats/minute
Temperature (T) [1, 31]: 36.5 ± 0.5 °C
Breath (B) [1, 32]: 86 ± 0.6 per minute
Pulse (P) [1, 32]: 370 ± 0.5 beats/minute
Temperature (T) [1, 32]: 36.4 ± 0.6 °C
Breath (B) [1, 33]: 86 ± 0.5 per minute
Pulse (P) [1, 33]: 374 ± 0.5 beats/minute
Temperature (T) [1, 33]: 36.5 ± 0.5 °C
Breath (B) [1, 34]: 86 ± 0.5 per minute
Pulse (P) [1, 34]: 370 ± 1.9 beats/minute
Temperature (T) [1, 34]: 36.4 ± 1.1 °C
Breath (B) [1, 35]: 86 ± 0.2 per minute
Pulse (P) [1, 35]: 372 ± 6.2 beats/minute
Temperature (T) [1, 35]: 36.5 ± 0.5 °C
Breath (B) [1, 36]: 86 ± 0.5 per minute
Pulse (P) [1, 36]: 373 ± 4.5 beats/minute
Temperature (T) [1, 36]: 36.5 ± 0.5 °C
Breath (B) [1, 37]: 86 ± 0.5 per minute
Pulse (P) [1, 37]: 371 ± 7.5 beats/minute
Temperature (T) [1, 37]: 36.5 ± 0.5 °C
Breath (B) [1, 38]: 86 ± 0.5 per minute
Pulse (P) [1, 38]: 371 ± 0.6 beats/minute
Temperature (T) [1, 38]: 36.4 ± 1.0 °C
Breath (B) [1, 39]: 86 ± 0.3 per minute
Pulse (P) [1, 39]: 365 ± 8.1 beats/minute
Temperature (T) [1, 39]: 36.3 ± 0.7 °C
Breath (B) [1, 40]: 86 ± 0.3 per minute
Pulse (P) [1, 40]: 367 ± 0.9 beats/minute
Temperature (T) [1, 40]: 36.4 ± 0.8 °C
Breath (B) [1, 41]: 86 ± 0.5 per minute
Pulse (P) [1, 41]: 365 ± 9.5 beats/minute
Temperature (T) [1, 41]: 36.3 ± 1.5 °C
Breath (B) [1, 42]: 86 ± 0.5 per minute
Pulse (P) [1, 42]: 368 ± 8.7 beats/minute
Temperature (T) [1, 42]: 36.4 ± 1.0 °C
Breath (B) [1, 43]: 86 ± 0.3 per minute
Pulse (P) [1, 43]: 371 ± 5.9 beats/minute
Temperature (T) [1, 43]: 36.4 ± 0.8 °C
Breath (B) [1, 44]: 86 ± 0.3 per minute
Pulse (P) [1, 44]: 369 ± 5.9 beats/minute
Temperature (T) [1, 44]: 36.4 ± 0.8 °C
FOB overall observation [1, 45]: did not find any notable negative changes
deaths or injuries [1, 45]: No deaths or injuries
metabolic rate [2]: did not alter the metabolic rate
water solubility (Water solubility): can be dissolved into water
